Assay results taken from the supplement of paper PMC10307832.

How the values were obtained:
Assay in all cases: relative viability (nuclei count vs DMSO), 5 days (fraction); higher = more cells survive
RU-SKI 43 + Pictilisib = compound: CC[C@@H](C)CNCC(=O)N1CCC2=C([C@@H]1COC3=CC=CC(=C3)C)C=CS2 [RU-SKI 43] + CS(=O)(=O)N1CCN(Cc2cc3nc(-c4cccc5[nH]ncc45)nc(N4CCOCC4)c3s2)CC1 [Pictilisib] (partner 1 µM)
Procedure, shortened: (§1)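 Lung cancer cell lines were seeded in 1536-well plates and dosed by pin tool the next day, with either a single drug or a fixed anchor-drug dose combined with five library-drug doses (not always all listed) spaced in √10 steps. Five days later, one step fixed the cells and stained their nuclei (final 0.05% Triton X-100, 1% formaldehyde, 1 ug/ml Hoechst), and nuclei were counted on 4× images. Relative viability is the nuclei count in treated wells divided by the count in vehicle wells, and each value is the median of duplicate plates.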

Irinotecan + Lapatinib = compound: CCc1c2c(nc3ccc(OC(=O)N4CCC(N5CCCCC5)CC4)cc13)-c1cc3c(c(=O)n1C2)COC(=O)[C@]3(O)CC [Irinotecan] + CS(=O)(=O)CCNCc1ccc(-c2ccc3ncnc(Nc4ccc(OCc5cccc(F)c5)c(Cl)c4)c3c2)o1 [Lapatinib] (partner 2 µM)
Procedure, shortened: as §1

MK-8033 + Navitoclax = compound: Cn1cc(-c2cnc3ccc4ccc(CS(=O)(=O)NCc5ccccn5)cc4c(=O)c3c2)cn1 [MK-8033] + CC1(C)CCC(c2ccc(Cl)cc2)=C(CN2CCN(c3ccc(C(=O)NS(=O)(=O)c4ccc(N[C@H](CCN5CCOCC5)CSc5ccccc5)c(S(=O)(=O)C(F)(F)F)c4)cc3)CC2)C1 [Navitoclax] (partner 0.5 µM)
Procedure, shortened: as §1

MK-8033 + Linsitinib = compound: Cn1cc(-c2cnc3ccc4ccc(CS(=O)(=O)NCc5ccccn5)cc4c(=O)c3c2)cn1 [MK-8033] + C[C@]1(O)C[C@@H](c2nc(-c3ccc4ccc(-c5ccccc5)nc4c3)c3c(N)nccn32)C1 [Linsitinib] (partner 1 µM)
Procedure, shortened: as §1

Row | Cell Line | relative viability (RU-SKI 43 + Pictilisib; first compound 0.1 µM) | relative viability (RU-SKI 43 + Pictilisib; first compound 0.3162 µM) | relative viability (RU-SKI 43 + Pictilisib; first compound 1 µM) | relative viability (RU-SKI 43 + Pictilisib; first compound 3.162 µM) | relative viability (RU-SKI 43 + Pictilisib; first compound 10 µM) | relative viability (Irinotecan + Lapatinib; first compound 0.6325 µM) | relative viability (Irinotecan + Lapatinib; first compound 2 µM) | relative viability (Irinotecan + Lapatinib; first compound 6.325 µM) | relative viability (Irinotecan + Lapatinib; first compound 20 µM) | relative viability (MK-8033 + Navitoclax; first compound 0.02 µM) | relative viability (MK-8033 + Navitoclax; first compound 0.06325 µM) | relative viability (MK-8033 + Navitoclax; first compound 0.2 µM) | relative viability (MK-8033 + Navitoclax; first compound 0.6325 µM) | relative viability (MK-8033 + Navitoclax; first compound 2 µM) | relative viability (MK-8033 + Linsitinib; first compound 0.02 µM) | relative viability (MK-8033 + Linsitinib; first compound 0.06325 µM) | relative viability (MK-8033 + Linsitinib; first compound 0.2 µM) | relative viability (MK-8033 + Linsitinib; first compound 0.6325 µM) | relative viability (MK-8033 + Linsitinib; first compound 2 µM)
1 | NCI-H1755 | 0.384 | 0.524 | 0.532 | 0.48 | 0.367 | 0.883 | 0.9 | 0.309 | 0.318 | 0.829 | 0.988 | 0.983 | 1.01 | 0.966 | 0.996 | 0.993 | 0.954 | 0.988 | 0.946
2 | LOU-NH91 | 0.504 | 0.483 | 0.547 | 0.485 | 0.543 | 0.685 | 0.8 | 0.414 | 0.402 | 0.686 |  | 0.674 | 0.675 | 0.695 | 0.93 |  | 0.912 | 0.89 | 0.992
3 | NCI-H1975 | 0.293 | 0.289 | 0.294 | 0.273 | 0.254 | 0.86 | 0.689 | 0.302 | 0.14 | 1.12 | 0.92 | 1.08 | 1.08 | 1.07 | 0.925 | 0.957 | 0.873 | 0.956 | 0.905
4 | SW 1573 | 0.519 | 0.544 | 0.581 | 0.648 | 0.455 | 0.965 | 1.11 | 0.326 | 0.195 | 0.721 |  | 0.991 | 0.884 | 0.95 | 0.799 | 0.721 | 0.764 | 0.749 | 0.684
5 | NCI-H1944 | 0.336 | 0.317 | 0.372 | 0.353 | 0.351 | 0.563 | 0.369 | 0.178 | 0.187 | 1.15 |  | 0.991 | 1.02 | 1.03 | 1.2 |  | 1.12 | 1.23 | 1.37
6 | NCI-H838 | 0.471 | 0.434 | 0.544 | 0.444 | 0.445 | 1.03 | 0.874 | 0.399 | 0.161 | 1.13 | 1.14 | 1.01 | 1.22 | 1.08 | 0.988 | 0.98 | 0.985 | 0.98 | 0.953
